Source: ChEMBL document CHEMBL1137152, “Copper dipicolinates as peptidomimetic ligands for the Src SH2 domain” (Bioorg Med Chem Lett, 2004)

molecular target: T1, Proto-oncogene tyrosine-protein kinase Src (Homo sapiens, UniProt P12931); experiment: Inhibition of fluorescent (GpYEEI) binding to Src protein tyrosine kinase SH2 domain; NA = No significant inhibition
T1 sequence (P12931 2-536 limits assumed): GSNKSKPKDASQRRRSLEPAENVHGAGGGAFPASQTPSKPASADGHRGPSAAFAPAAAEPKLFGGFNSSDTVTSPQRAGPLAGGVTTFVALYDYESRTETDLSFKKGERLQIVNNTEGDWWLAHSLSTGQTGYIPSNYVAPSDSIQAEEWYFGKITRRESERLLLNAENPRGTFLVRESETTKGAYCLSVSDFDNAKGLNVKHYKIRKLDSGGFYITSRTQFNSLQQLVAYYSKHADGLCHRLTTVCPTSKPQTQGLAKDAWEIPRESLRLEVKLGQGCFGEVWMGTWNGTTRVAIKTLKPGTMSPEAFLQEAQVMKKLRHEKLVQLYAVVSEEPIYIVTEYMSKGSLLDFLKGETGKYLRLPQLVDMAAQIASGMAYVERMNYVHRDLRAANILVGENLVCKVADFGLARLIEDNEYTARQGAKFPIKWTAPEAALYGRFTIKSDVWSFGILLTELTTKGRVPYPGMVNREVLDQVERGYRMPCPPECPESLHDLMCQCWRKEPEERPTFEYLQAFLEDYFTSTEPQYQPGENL

IC50	Compound
Not Active	COC(=O)c1cc(OCC(=O)N[C@H](C(=O)NCc2cccc(OC)c2)c2ccccc2)cc(C(=O)OC)n1

molecular target: T1, Proto-oncogene tyrosine-protein kinase Src; experiment: Inhibition of fluorescent (GpYEEI) binding to Src protein tyrosine kinase SH2 domain

IC50	Compound
663 µM	COC(=O)c1cc(OCC(=O)N[C@@H](Cc2ccccc2)C(=O)NCc2cccc(OC)c2)cc(C(=O)OC)n1
713 µM	COC(=O)c1cc(OCC(=O)N[C@@H](CC(C)C)C(=O)NCc2cccc(OC)c2)cc(C(=O)OC)n1
714 µM	COC(=O)c1cc(OCC(=O)N[C@H](C(=O)NCc2ccc3c(c2)OCO3)c2ccccc2)cc(C(=O)OC)n1
396 µM	COC(=O)c1cc(OCC(=O)N[C@@H](Cc2ccccc2)C(=O)NCc2ccc3c(c2)OCO3)cc(C(=O)OC)n1
864 µM	COc1ccc(CNC(=O)[C@H](CC(C)C)NC(=O)COc2cc(C(=O)O)cc(C(=O)O)c2)cc1
